Assays:
DoHH2 tumor = format: in vivo
Experimental: In particular, tolerability of the combination treatment was assessed in DoHH2 tumor bearing CB17.SCID female mice (a follicular lymphoma subcutaneous model). […] Plasma samples were collected on day 7 (trough, 1, 2, 4, and 6 h post dose) and on day 14 (2 h post final dose).

CLL = assay: Clinical trial, Compound 1 monotherapy in a patient with CLL; format: in vivo, human; settings: one CLL patient
OCI-Ly7 = assay: Combination study, ATPLite 72 h, dose matrix (Synergy Score, CI50)
SU-DHL-4-epst = assay: as above
SU-DHL-6-epst = assay: Combination study of Compound 1 or CAL-101 and a second therapeutic agent (Synergy Score, CI50); format: cell-based
RL = assay: Combination study, ATPLite 72 h, dose matrix (Synergy Score, CI50)
Experimental: Cells are thawed from a liquid nitrogen preserved state. Once cells have been expanded and divide at their expected doubling times, screening begins. Cells are seeded in growth media in either black 1536-well or 384-well tissue culture treated plates. Cells are then equilibrated in assay plates via centrifugation and placed in incubators attached to the Dosing Modules at 37° C. for 24 hours before treatment. […] These Tzero (To) plates are read using ultra-sensitive luminescence on Envision plate readers (Perkin Elmer). Treated assay plates are incubated with compound for 72 hours. After 72 hours, plates are developed for endpoint analysis using ATPLite. All data points are collected via automated processes, quality controlled and analyzed using Zalicus software.
where T is treated cell count and V is untreated (vehicle) cell count (at 72 hours). I ranges from 0% (when T=V) to 100% (when T=0). […] The measure of effect in the experiment can be the inhibition of cellular response relative to the untreated level (vehicle alone). […] The inhibition ranges from 0% at the untreated level to 100% when T=0. Inhibition levels are negative for agents that actually increase levels. Other effect measures, such as an activity ratio r=T/V may be more appropriate for some assays. When activity ratios (e.g, fold increase over stimulated control) are being used, the effect can be measured using an induction 1=ln(T/V). With this definition, all effect expressions are the same as for inhibition.
Growth Inhibition (GI) is used as a measure of cell viability. […] A GI reading of 100% represents complete growth inhibition—T72 compound-treated and T0 vehicle signals are matched. […] A GI reading of 200% represents complete death of all cells in the culture well. Compounds reaching an activity plateau of GI 200% are considered cytotoxic. GI is calculated by applying the following test and equation:
Combination analysis data were collected in a 6×6 dose matrix. Synergy is calculated by comparing a combination's response to those of its single compound, against the drug-with-itself dose-additive reference model. Deviations from dose additivity may be assessed visually on an isobologram or numerically with a Combination Index (CI). […] Additive effect is CI=1.0. […] Antagonistic effect is CI>1.0.
To measure combination effects in excess of Loewe additivity, a scalar measure to characterize the strength of synergistic interaction termed the Synergy Score is devised. The Synergy Score is calculated as:
The fractional inhibition for each component agent and combination point in the matrix is calculated relative to the median of all vehicle-treated control wells. The Synergy Score equation integrates the experimentally-observed activity volume at each point in the matrix in excess of a model surface numerically derived from the activity of the component agents using the Loewe model for additivity. Additional terms in the Synergy Score equation (above) are used to normalize for various dilution factors used for individual agents and to allow for comparison of synergy scores across an entire experiment. The inclusion of positive inhibition gating or an Idata multiplier removes noise near the zero effect level, and biases results for synergistic interactions at that occur at high activity levels.
Loewe Volume (Loewe Vol) is used to assess the overall magnitude of the combination interaction in excess of the Loewe additivity model. Loewe Volume is particularly useful when distinguishing synergistic increases in a phenotypic activity (positive Loewe Volume) versus synergistic antagonisms (negative Loewe Volume). […] This model defines additivity as a non-synergistic combination interaction where the combination dose matrix surface should be indistinguishable from either drug crossed with itself.

WSU-NHL = assay: as above

C[C@H](Nc1ncnc2[nH]cnc12)c1cc2cccc(Cl)c2c(=O)n1-c1ccccc1 [Compound 1, (S)-3-(1-((9H-purin-6-yl)amino)ethyl)-8-chloro-2-phenylisoquinolin-1(2H)-one]
tumor volume (DoHH2 tumor; Compound 1 50 mg/kg QD PO plus dexamethasone 5 mg/kg Q3D IP, after 12 days, versus vehicle, Compound 1 alone or dexamethasone alone, FIG. 8): lower | tumor growth inhibition (DoHH2 tumor; Compound 1 50 mg/kg QD in combination with dexamethasone 5 mg/kg Q3D IP, compared to either monotherapy): greater tumor growth inhibition | tolerability of the combination (body weight) (DoHH2 tumor; co-administration of dexamethasone and Compound 1 in mice): tolerable | Absolute lymphocyte count (ALC) (CLL; 25 mg bid, C5D1, ALC=257 at C1D1): 134 | clinical response (CLL; 25 mg bid, after C7 (cycle 7), STK11 copy loss detected at C5D1): progressed | clinical response (CLL; monotherapy 25 mg bid, C3D1 (cycle 3, day 1)): partial response | CI50 growth inhibition (OCI-Ly7; combination with Dexamethasone): S (S=0.01 to <0.5) | CI50 inhibition (OCI-Ly7; combination with Dexamethasone): S (S=0.01 to <0.5) | Synergy Score growth inhibition (OCI-Ly7; combination with Dexamethasone): A3 (A3=>3) | Synergy Score inhibition (OCI-Ly7; combination with Dexamethasone): A2 (A2=1 to <3) | CI50 growth inhibition (OCI-Ly7; combination with LEE011): U (U=0.7 to <1) | CI50 inhibition (OCI-Ly7; combination with LEE011): W (W=≥1) | Synergy Score growth inhibition (OCI-Ly7; combination with LEE011): A2 (A2=1 to <3) | Synergy Score inhibition (OCI-Ly7; combination with LEE011): A1 (A1=0.0001 to <1) | CI50 growth inhibition (OCI-Ly7; combination with PCI-32765): W (W=≥1) | Synergy Score growth inhibition (OCI-Ly7; combination with PCI-32765): A2 (A2=1 to <3) | Synergy Score inhibition (OCI-Ly7; combination with PCI-32765): A1 (A1=0.0001 to <1) | CI50 growth inhibition (OCI-Ly7; combination with PD-0332991): T (T=0.5 to <0.7) | CI50 inhibition (OCI-Ly7; combination with PD-0332991): S (S=0.01 to <0.5) | Synergy Score growth inhibition (OCI-Ly7; combination with PD-0332991): A2 (A2=1 to <3) | Synergy Score inhibition (OCI-Ly7; combination with PD-0332991): A2 (A2=1 to <3) | CI50 growth inhibition (SU-DHL-4-epst; combination with Dexamethasone): S (S=0.01 to <0.5) | CI50 inhibition (SU-DHL-4-epst; combination with Dexamethasone): S (S=0.01 to <0.5) | Synergy Score growth inhibition (SU-DHL-4-epst; combination with Dexamethasone): A3 (A3=>3) | Synergy Score inhibition (SU-DHL-4-epst; combination with Dexamethasone): A3 (A3=>3) | CI50 growth inhibition (SU-DHL-4-epst; combination with LEE011): S (S=0.01 to <0.5) | CI50 inhibition (SU-DHL-4-epst; combination with LEE011): S (S=0.01 to <0.5) | Synergy Score growth inhibition (SU-DHL-4-epst; combination with LEE011): A2 (A2=1 to <3) | Synergy Score inhibition (SU-DHL-4-epst; combination with LEE011): A2 (A2=1 to <3) | CI50 growth inhibition (SU-DHL-4-epst; combination with PCI-32765): S (S=0.01 to <0.5) | CI50 inhibition (SU-DHL-4-epst; combination with PCI-32765): S (S=0.01 to <0.5) | Synergy Score growth inhibition (SU-DHL-4-epst; combination with PCI-32765): A3 (A3=>3) | Synergy Score inhibition (SU-DHL-4-epst; combination with PCI-32765): A3 (A3=>3) | CI50 growth inhibition (SU-DHL-4-epst; combination with PD-0332991): S (S=0.01 to <0.5) | CI50 inhibition (SU-DHL-4-epst; combination with PD-0332991): S (S=0.01 to <0.5) | Synergy Score growth inhibition (SU-DHL-4-epst; combination with PD-0332991): A3 (A3=>3) | Synergy Score inhibition (SU-DHL-4-epst; combination with PD-0332991): A2 (A2=1 to <3) | CI50 growth inhibition (SU-DHL-6-epst; combination with Dexamethasone): T (T=0.5 to <0.7) | CI50 inhibition (SU-DHL-6-epst; combination with Dexamethasone): T (T=0.5 to <0.7) | Synergy Score growth inhibition (SU-DHL-6-epst; combination with Dexamethasone): A3 (A3=>3) | Synergy Score inhibition (SU-DHL-6-epst; combination with Dexamethasone): A2 (A2=1 to <3) | CI50 growth inhibition (SU-DHL-6-epst; combination with LEE011): S (S=0.01 to <0.5) | Synergy Score growth inhibition (SU-DHL-6-epst; combination with LEE011): A2 (A2=1 to <3) | Synergy Score inhibition (SU-DHL-6-epst; combination with LEE011): A1 (A1=0.0001 to <1) | CI50 growth inhibition (SU-DHL-6-epst; combination with PCI-32765): S (S=0.01 to <0.5) | CI50 inhibition (SU-DHL-6-epst; combination with PCI-32765): S (S=0.01 to <0.5) | Synergy Score growth inhibition (SU-DHL-6-epst; combination with PCI-32765): A3 (A3=>3) | Synergy Score inhibition (SU-DHL-6-epst; combination with PCI-32765): A2 (A2=1 to <3) | CI50 growth inhibition (SU-DHL-6-epst; combination with PD-0332991): S (S=0.01 to <0.5) | CI50 inhibition (SU-DHL-6-epst; combination with PD-0332991): S (S=0.01 to <0.5) | Synergy Score growth inhibition (SU-DHL-6-epst; combination with PD-0332991): A2 (A2=1 to <3) | Synergy Score inhibition (SU-DHL-6-epst; combination with PD-0332991): A2 (A2=1 to <3) | CI50 growth inhibition (RL; combination with Dexamethasone): T (T=0.5 to <0.7) | CI50 inhibition (RL; combination with Dexamethasone): T (T=0.5 to <0.7) | Synergy Score growth inhibition (RL; combination with Dexamethasone): A3 (A3=>3) | Synergy Score inhibition (RL; combination with Dexamethasone): A3 (A3=>3) | CI50 growth inhibition (RL; combination with LEE011): T (T=0.5 to <0.7) | CI50 inhibition (RL; combination with LEE011): U (U=0.7 to <1) | Synergy Score growth inhibition (RL; combination with LEE011): A2 (A2=1 to <3) | Synergy Score inhibition (RL; combination with LEE011): A1 (A1=0.0001 to <1) | CI50 growth inhibition (RL; combination with PCI-32765): S (S=0.01 to <0.5) | CI50 inhibition (RL; combination with PCI-32765): S (S=0.01 to <0.5) | Synergy Score growth inhibition (RL; combination with PCI-32765): A2 (A2=1 to <3) | Synergy Score inhibition (RL; combination with PCI-32765): A2 (A2=1 to <3) | CI50 growth inhibition (RL; combination with PD-0332991): S (S=0.01 to <0.5) | CI50 inhibition (RL; combination with PD-0332991): S (S=0.01 to <0.5) | Synergy Score growth inhibition (RL; combination with PD-0332991): A2 (A2=1 to <3) | Synergy Score inhibition (RL; combination with PD-0332991): A2 (A2=1 to <3) | CI50 growth inhibition (WSU-NHL; combination with Dexamethasone): S (S=0.01 to <0.5) | CI50 inhibition (WSU-NHL; combination with Dexamethasone): S (S=0.01 to <0.5) | Synergy Score growth inhibition (WSU-NHL; combination with Dexamethasone): A3 (A3=>3) | Synergy Score inhibition (WSU-NHL; combination with Dexamethasone): A3 (A3=>3) | CI50 growth inhibition (WSU-NHL; combination with LEE011): S (S=0.01 to <0.5) | CI50 inhibition (WSU-NHL; combination with LEE011): S (S=0.01 to <0.5) | Synergy Score growth inhibition (WSU-NHL; combination with LEE011): A2 (A2=1 to <3) | Synergy Score inhibition (WSU-NHL; combination with LEE011): A2 (A2=1 to <3) | CI50 growth inhibition (WSU-NHL; combination with PCI-32765): S (S=0.01 to <0.5) | CI50 inhibition (WSU-NHL; combination with PCI-32765): S (S=0.01 to <0.5) | Synergy Score growth inhibition (WSU-NHL; combination with PCI-32765): A3 (A3=>3) | Synergy Score inhibition (WSU-NHL; combination with PCI-32765): A3 (A3=>3) | CI50 growth inhibition (WSU-NHL; combination with PD-0332991): S (S=0.01 to <0.5) | CI50 inhibition (WSU-NHL; combination with PD-0332991): S (S=0.01 to <0.5)

Source: US20240325398A1, “COMBINATION THERAPIES” (Infinity Pharmaceuticals, Inc., priority 2014, published 2024)
